The results in this text go back to patent US20200247812A1 (Integral Biosciences Private Limited, priority 2018, published 2020).

One test concerns HCT116. Nature of the test: Cell viability assay (resazurin), HCT116. It is filed as cell-based. The conditions noted are these: Homo sapiens, HCT-116, 72-144 hr. The method, then:
(§1) Different cell lines such as pancreatic, (MIA PaCa-2; ATCC®CRL-1420™ & and Panc-1; CRL-1469™), liver carcinoma (HepG2; ATCC® HB-8065™), lung epithelial carcinoma (A549; ATCC® CCL-185™) and others were seeded in their respective medium (DMEM, Cat #10569044, MEM, Cat #41090036; RPMI, Cat #22400089; all with 10% FBS, Gibco, ThermoFisher) at a cell count of 3000 cells per 100 μl per well in a 96 well edge plate (167425; ThermoFisher). Cells were allowed to grow at 37° C. for 24 hr in 5% CO2 (culture conditions) in a Nuaire incubator (humidified). Serially diluted compounds (100 μl) were added to the culture plate 24 hr later and the cultures were further incubated in culture conditions for specified time depending on doubling time of specific cell line (ranging from 72-144 hr). Experiment was terminated at the completion of incubation time with the drug by replacing the medium with 100 μl of 1 mM of resazurin (R7017; Sigma) prepared in respective culture medium and the plates were further incubated in culture conditions for 4 hr. Fluorescence was then measured using a multimodal plate reader (Biotek Synergy Neo) at an excitation wavelength of 535 nm and emission wavelength of 590 nm to obtain relative fluorescence units. Data analysis was done by subtracting the background fluorescence (only medium blank) value from each reading and then normalizing with the vehicle control (DMSO treated cells) to obtain percent survival/proliferation. Percent survival at different doses was used to calculate IC50 by fitting the curve to the “four-parameter variable slope logistic model” using Prism Graph Pad.

Another test deals with A427. Briefly: Cell viability assay (resazurin), A427. It is filed as cell-based. The conditions noted are these: Homo sapiens, A-427, 72-144 hr. The protocol: as §1
For orientation: Resazurin is reduced to fluorescent resorufin, in cell work by metabolically active cells.

The next test concerns THP1. Briefly: Cell viability assay (resazurin), THP1. To be noted: Homo sapiens, THP-1, 72-144 hr. The format is cell-based. The method, then: as §1
In a further test the test system is MiaPaCa-2. Briefly: Cell viability assay (resazurin), MiaPaCa-2. The format is cell-based. To be noted: Homo sapiens, MIA PaCa-2, 72-144 hr. The method, then: Different cell lines such as pancreatic, (MIA PaCa-2; ATCC®CRL-1420™ & and Panc-1; CRL-1469™), liver carcinoma (HepG2; ATCC® HB-8065™), lung epithelial carcinoma (A549; ATCC® CCL-185™) and others were seeded in their respective medium (DMEM, Cat #10569044, MEM, Cat #41090036; RPMI, Cat #22400089; all with 10% FBS, Gibco, ThermoFisher) at a cell count of 3000 cells per 100 μl per well in a 96 well edge plate (167425; ThermoFisher). Cells were allowed to grow at 37° C. for 24 hr in 5% CO2 (culture conditions) in a Nuaire incubator (humidified). Serially diluted compounds (100 μl) were added to the culture plate 24 hr later and the cultures were further incubated in culture conditions for specified time depending on doubling time of specific cell line (ranging from 72-144 hr). […] Fluorescence was then measured using a multimodal plate reader (Biotek Synergy Neo) at an excitation wavelength of 535 nm and emission wavelength of 590 nm to obtain relative fluorescence units. Data analysis was done by subtracting the background fluorescence (only medium blank) value from each reading and then normalizing with the vehicle control (DMSO treated cells) to obtain percent survival/proliferation. […]

Another test relates to mouse splenocytes. Nature of the test: Mouse splenocyte viability assay (CD3e/CD28 activated, resazurin). It is filed as cell-based. The conditions noted are these: CD3e/CD28 activated Balb/c splenocytes, 72 hr. The method, then: IC50 values of compounds for determining viability in CD3e/CD28 activated mouse splenocytes isolated from Balb/c mice cultured in RPMI, Cat #22400089; with 10% FBS, Gibco, ThermoFisher). Mouse splenocytes (2×10^5 cells/well) were activated with Anti-mouse CD3e (2.5 μg/ml, coated overnight at 4° C.; Cat #14-0032-82, eBioscience) and then incubated with serial dilutions of compounds (3 fold, 8 point dose response starting at 30 μM) for 30 min at 37° C., 5% CO2 in an incubator (cell culture conditions) prior to treating them with Anti-mouse CD28 (0.1 μg/ml soluble; Cat #16-0281-82, eBiosciences). Splenocytes were further incubated under cell culture conditions for 72 hr following which experiment was terminated by replacing the medium with 100 μl of 1 mM of resazurin (R7017; Sigma) prepared in respective culture medium and the plates were further incubated in culture conditions for 4 hr. Fluorescence was then measured using a multimodal plate reader (Biotek Synergy Neo) at an excitation wavelength of 535 nm and emission wavelength of 590 nm to obtain relative fluorescence units. Data analysis was done by subtracting the background fluorescence (only medium blank) value from each reading and then normalizing with the average of vehicle control (DMSO treated cells) to obtain percent survival/proliferation. […]

Another test relates to Panc-10.05. Nature of the test: Cell viability assay (resazurin), Panc-10.05. The conditions noted are these: Homo sapiens, Panc1005, 72-144 hr. The format is cell-based. The method, then:
as §1

Another test has as its target T1, ALK 5 (Homo sapiens, UniProt P36897).
T1 sequence (P36897 34-503): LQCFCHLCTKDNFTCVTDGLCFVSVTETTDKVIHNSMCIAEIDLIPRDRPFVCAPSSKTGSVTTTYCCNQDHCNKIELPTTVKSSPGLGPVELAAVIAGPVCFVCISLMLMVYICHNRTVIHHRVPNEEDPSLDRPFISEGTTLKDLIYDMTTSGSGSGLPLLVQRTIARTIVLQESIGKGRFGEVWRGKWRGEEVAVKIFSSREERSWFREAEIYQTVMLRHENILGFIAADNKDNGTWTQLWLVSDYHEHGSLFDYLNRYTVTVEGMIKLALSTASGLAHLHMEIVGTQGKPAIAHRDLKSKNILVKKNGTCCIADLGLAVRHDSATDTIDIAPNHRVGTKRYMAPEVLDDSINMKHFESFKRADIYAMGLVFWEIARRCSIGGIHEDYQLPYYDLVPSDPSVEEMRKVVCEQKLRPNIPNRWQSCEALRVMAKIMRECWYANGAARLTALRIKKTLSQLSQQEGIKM
Briefly: In vitro kinase assay (ALK5 IC50, LanthaScreen Terbium labeled TR-FRET). It is filed as biochemical. The conditions noted are these: TGF-β kinase 6 nM, ATP 10 μM, read-out: Enzyme Activity ALK 5 IC50. An outline of the steps: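 LanthaScreen Tb TR-FRET: ALK5 (6 nM) preincubated 10 min with 3-fold diluted compounds, then 10 μM ATP and 200 nM fluorescent PolyGT substrate added for 1 h at room temperature. Stopped with EDTA/Tb antibody; 520/495 nm emission read. IC50 from four-parameter fit versus DMSO and no-enzyme controls.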

A further test concerns MV-4-11. Briefly: Cell viability assay (resazurin), MV-4-11. It is filed as cell-based. The conditions noted are these: Homo sapiens, MV4-11, 72-144 hr. The protocol:
as §1

Some results are limits rather than exact numbers.

For the molecule `CC(C)c1[nH]c(=O)c(-c2cc(Cl)ccc2F)cc1Nc1ccnc2[nH]ccc12` [Compound 1.50, 5-((1H-pyrrolo[2,3-b]pyridin-4-yl)amino)-3-(5-chloro-2-fluorophenyl)-6-isopropylpyridin-2(1H)-one], the IC50 (as a rule, the midpoint of a concentration-inhibition curve) in the test on HCT116 was 1.97 µM; with A427, 3.55 µM; in the test with THP1 it was 13.4 µM; with MiaPaCa-2 it was > 30 µM; with mouse splenocytes, > 30 µM; with Panc-10.05, 4.72 µM. Moreover, the IC50 at ALK 5 is ≤ 0.5 µM; in the test on MV-4-11, 0.7 µM.
In the case of `CC(=O)Nc1cc(Nc2cc(-c3cc(Cl)ccc3F)c(=O)[nH]c2C(C)C)ccn1` [Compound 1.48, N-(4-((5-(5-chloro-2-fluorophenyl)-2-isopropyl-6-oxo-1,6-dihydropyridin-3-yl)amino)pyridin-2-yl)acetamide], the IC50 in the test on HCT116, in the test with A427, with THP1, in the test on MiaPaCa-2, with mouse splenocytes and with Panc-10.05 was > 30 µM throughout. For the same molecule, the IC50 on ALK 5 was ≤ 0.5 µM; in the test with MV-4-11, 19.9 µM.
